The target of one assay is T1, human MMP-8 (Homo sapiens, UniProt P22894).
T1 construct: purchased Calbiochem
Nature of the assay: MMP enzyme inhibition assay, MMP-8. Type of assay: biochemical. To be noted: pH 7.5, 37° C., 1 hour.

For a further assay, the target named is T2, recombinant human ADAM17 (Homo sapiens, UniProt P78536).
T2 construct: purchased R&D Systems Inc
Nature of the assay: Selectivity profile, ADAM17. Type of assay: biochemical.

The target of the next assay is T3, human MMP-2 (Homo sapiens, UniProt P08253).
T3 construct: purchased Calbiochem
T3 sequence (P08253 110-660): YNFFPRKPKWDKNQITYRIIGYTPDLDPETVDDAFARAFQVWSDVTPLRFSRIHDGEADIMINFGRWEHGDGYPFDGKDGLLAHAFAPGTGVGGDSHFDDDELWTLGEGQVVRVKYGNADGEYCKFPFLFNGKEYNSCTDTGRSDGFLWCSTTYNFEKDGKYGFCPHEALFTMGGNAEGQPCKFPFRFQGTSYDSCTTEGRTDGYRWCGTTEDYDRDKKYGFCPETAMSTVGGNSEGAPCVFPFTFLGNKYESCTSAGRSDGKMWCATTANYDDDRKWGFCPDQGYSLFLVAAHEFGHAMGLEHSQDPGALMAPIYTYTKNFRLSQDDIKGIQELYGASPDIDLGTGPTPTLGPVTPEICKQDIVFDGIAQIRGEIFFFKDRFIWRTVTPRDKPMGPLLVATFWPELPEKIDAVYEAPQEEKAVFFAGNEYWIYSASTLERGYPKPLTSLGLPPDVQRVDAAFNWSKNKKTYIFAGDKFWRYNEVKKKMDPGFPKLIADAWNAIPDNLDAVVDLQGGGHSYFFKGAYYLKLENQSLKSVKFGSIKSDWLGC
The experiment in a line: MMP enzyme inhibition assay, MMP-2. Particulars: pH 7.5, 37° C., 1 hour. Type of assay: biochemical.

A further assay addresses T4, V8 protease (Staphylococcus aureus, UniProt P0C1U8).
T4 construct: purchased BioCentrum Ltd
The experiment in a line: Selectivity profile, V8 protease. Type of assay: biochemical. To be noted: read-out: inhibition at 0.1 mM, V8 protease. The method, then: Inhibitory activity was tested in reaction mixtures (0.1 ml) containing 2% (v/v) DMSO vehicle±compound plus additions as follows. V8 protease: 90 mM MOPS (sodium) buffer pH 7.0, […] calcium chloride, 0.045% Brij 35, 10 μM Mca-Leu-Glu-Val-Asp-Gly-Trp-Lys(Dnp)-amide (Bachem) and V8 (BioCentrum Ltd; 30 ng). Staphopain A and B: 90 mM MOPS (sodium) buffer pH 7.0, 1.8 mM cysteine-HCl (pH-adjusted with NaOH), 0.045% Brij 35, 0.1 mM Z-Phe-Arg-AMC hydrochloride (Bachem) and staphopain A or B (BioCentrum Ltd; 30 ng). Human kallikrein 5: 0.1M sodium phosphate buffer pH 8.0, 0.045% Brij 35, 0.1 mM Boc-Val-Pro-Arg-AMC (Sigma) and recombinant human kallikrein 5 (R&D Systems Inc; 6 ng). Human kallikrein 7: 72 mM Tris-HCl pH 8.0, 0.033% Brij 35, 1.2 mM S-2586 (Chromogenix Instrumentation Laboratory SpA) and recombinant human kallikrein 7 (R&D Systems Inc; 0.6 μg) that had been thermolysin-activated according to the manufacturer's instructions. Human angiotensin-converting enzyme (ACE): 45 mM MES (sodium) buffer pH 6.5, 0.045% Brij 35, 10 μM Mca-[…]Dnp)-OH(R&D Systems Inc) and recombinant human ACE (R&D Systems Inc; 1.3 ng). Human cathepsin D: 0.1M sodium acetate buffer pH 3.5, 0.2M sodium chloride, 0.045% Brij 35, 10 μM Mca-Pro-Leu-Gly-Leu-Dap(Dnp)-Ala-Arg-amide (Bachem) and recombinant human cathepsin D (R&D Systems Inc; 8 ng) activated according to the manufacturer's instructions. […]

Assay [1] concerns protease activity in skin wash samples from patients with acute AD. The experiment in a line: Zymographic analysis of skin wash samples. Type of assay: biochemical, human. To be noted: 50 μM; gelatin zymogram gel; 6 samples acute AD. As to the method: A method has been developed to evaluate protease activity in skin washings. Skin washings from patients with acute eczema may be obtained by aspirating 0.5 ml sterile physiological saline over the skin surface using a sterile, disposable plastic Pasteur pipette The skin area (˜1 cm^2) is defined by a sterile open-ended plastic cylinder. Samples were transferred to 0.05 ml 0.55 M MOPS buffer pH 7.0, 55 mM calcium chloride and 0.2% Brij 35, mixed, centrifuged to remove debris and frozen at −70° C. pending analysis.
Zymographic analysis of the protease content of the samples may be done by mixing with 0.2 volume 0.2M Tris-HCl pH 6.8 containing 37.5% (v/v) glycerol and 2.5% sodium dodecylsulphate followed by electrophoresis through a gelatin zymogram gel (Invitrogen Corporation) according to the manufacturer's instructions. Gels were washed in 2.5% (w/v) Triton X-100 in 25 mM MOPS buffer pH 7 with or without compound 11 (50 μM) and developed overnight at 37° C. in 0.1M MOPS buffer pH 7 containing 5 mM calcium chloride with or without compound 11 (50 μM). Zones of clearing due to proteolytic activity may be identified by staining with Coomassie Brilliant Blue R followed by destaining in 40% (v/v) methanol/10% (v/v) acetic acid. […]

T1 sequence (P22894 101-467): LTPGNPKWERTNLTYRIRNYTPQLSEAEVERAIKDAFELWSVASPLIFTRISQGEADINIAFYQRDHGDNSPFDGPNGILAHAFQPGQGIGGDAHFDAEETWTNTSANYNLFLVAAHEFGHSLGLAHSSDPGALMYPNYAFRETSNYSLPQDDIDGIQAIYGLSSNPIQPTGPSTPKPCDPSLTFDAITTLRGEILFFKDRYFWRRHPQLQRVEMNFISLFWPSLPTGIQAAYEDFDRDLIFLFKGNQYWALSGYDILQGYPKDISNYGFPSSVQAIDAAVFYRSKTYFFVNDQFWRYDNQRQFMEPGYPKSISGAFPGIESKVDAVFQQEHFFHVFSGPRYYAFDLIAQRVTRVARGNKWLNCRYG
T2 sequence (P78536 215-824): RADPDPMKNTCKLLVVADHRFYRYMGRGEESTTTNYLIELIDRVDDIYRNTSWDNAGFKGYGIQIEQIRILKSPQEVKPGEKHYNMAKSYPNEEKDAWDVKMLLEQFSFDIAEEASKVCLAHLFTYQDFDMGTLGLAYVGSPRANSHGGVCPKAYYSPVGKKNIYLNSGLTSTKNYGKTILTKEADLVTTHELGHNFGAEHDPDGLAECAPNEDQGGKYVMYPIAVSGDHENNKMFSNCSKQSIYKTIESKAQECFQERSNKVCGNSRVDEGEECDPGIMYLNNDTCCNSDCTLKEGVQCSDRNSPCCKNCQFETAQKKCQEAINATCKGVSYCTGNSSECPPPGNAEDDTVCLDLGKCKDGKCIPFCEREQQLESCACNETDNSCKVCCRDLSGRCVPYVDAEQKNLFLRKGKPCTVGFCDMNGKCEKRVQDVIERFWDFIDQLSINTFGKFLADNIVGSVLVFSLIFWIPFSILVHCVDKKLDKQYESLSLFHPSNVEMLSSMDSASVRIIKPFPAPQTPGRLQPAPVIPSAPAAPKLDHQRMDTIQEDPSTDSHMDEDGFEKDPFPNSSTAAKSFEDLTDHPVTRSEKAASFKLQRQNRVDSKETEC
T4 sequence (P0C1U8 69-336): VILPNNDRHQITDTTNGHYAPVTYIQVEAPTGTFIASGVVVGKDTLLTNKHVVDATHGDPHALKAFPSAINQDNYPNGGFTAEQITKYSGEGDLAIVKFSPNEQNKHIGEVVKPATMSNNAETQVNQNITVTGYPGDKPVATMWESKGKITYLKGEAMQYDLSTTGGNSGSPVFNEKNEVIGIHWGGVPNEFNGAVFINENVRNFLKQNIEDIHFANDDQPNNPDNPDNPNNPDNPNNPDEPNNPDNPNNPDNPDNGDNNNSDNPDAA

`CNC(=O)[C@@H](NC(=O)[C@H](CC(=O)NO)CC(C)C)C(C)(C)C` [Compound 12, (S)—N1-((S)-3,3-dimethyl-1-(methylamino)-1-oxobutan-2-yl)-N4-hydroxy-2-isobutylsuccinamide]: the figures for the half-maximal inhibitory concentration (IC50) against human MMP-8, at recombinant human ADAM17 and against human MMP-2 were 1400 nM, 79000 nM and 2700 nM, respectively. Also, the inhibition at 100 µM on V8 protease is 0%.

Turning to `CNC(=O)[C@@H](NC(=O)[C@@H](CC(=O)NO)CC(C)C)C(C)(C)C` [Compound 11, (R)—N1-((S)-3,3-dimethyl-1-(methylamino)-1-oxobutan-2-yl)-N4-hydroxy-2-isobutylsuccinamide], the IC50 on human MMP-8 was 1.4 nM; on recombinant human ADAM17, 25 nM; against human MMP-2, 1.9 nM. In addition, the inhibition at 100 µM on V8 protease was found to be 0%. Further, in assay [1], the “inhibition of protease activity in skin wash samples, zymography (in words)” value is listed as “significant inhibition of protease activity”.
